Results on 17 molecules are retold here after patent publication US20260327233A1, “Heteroaryl Compounds as Ligand Directed Degraders of IRAK4” (Celgene Corporation, priority 2023, published 2026).

For test [1], the target named is T1, IRAK4 (Homo sapiens, UniProt Q9NWZ3).
T1 sequence (Q9NWZ3 1-460): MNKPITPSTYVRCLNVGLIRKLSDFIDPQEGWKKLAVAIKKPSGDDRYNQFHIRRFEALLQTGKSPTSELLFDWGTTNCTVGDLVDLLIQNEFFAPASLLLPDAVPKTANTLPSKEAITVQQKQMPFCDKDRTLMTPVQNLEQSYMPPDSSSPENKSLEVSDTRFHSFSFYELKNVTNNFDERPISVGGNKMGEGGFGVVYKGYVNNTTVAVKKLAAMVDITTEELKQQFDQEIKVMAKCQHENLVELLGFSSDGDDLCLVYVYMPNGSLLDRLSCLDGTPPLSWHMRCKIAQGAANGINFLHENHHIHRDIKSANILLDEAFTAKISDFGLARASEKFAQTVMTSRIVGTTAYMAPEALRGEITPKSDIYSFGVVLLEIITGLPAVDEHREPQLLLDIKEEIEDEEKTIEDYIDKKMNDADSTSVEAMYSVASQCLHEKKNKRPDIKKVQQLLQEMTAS
Nature of the test: ALE THP1 HTRF (IRAK4 HTRF in THP1 cell lysate, Cisbio HTRF kit). Format: cell-based. Conditions: anti-IRAK4 d2 / anti-IRAK4 k antibodies. Details: THP1 Homogeneous Time Resolved Fluorescence (ALE THP1 HTRF) Procedure; endogenous in cells; host or cells: THP1. How it is done:
Cell culture media was prepared in a tissue culture hood in a sterile environment by adding 10% FBS and 1% Penicillin Streptomycin to 500 mL no phenol red RPMI 1640 media. The media was filtered through a Nalgene Bottle Top Filter and stored at 4° C.
For Homogenous Time Resolved Fluorescence (HTRF) assays, a Cisbio HTRF kit was used, which included: Lysis Buffer #1 4×, Blocking Reagent #3 100×, 20× Antibody 1 (Anti-IRAK4 d2), 20× Antibody 2 (Anti-IRAK4 k), and Detection Buffer.
4× Lysis Buffer was stored at 4° C. For use as 1× Lysis buffer, the 4× solution was diluted with de-ionized water (distilled water, Gibco Cat. #15230279) and 100× Blocking Reagent in a 1:3:0.04 volume ratio.
20× Antibody Solution aliquots were stored at −80° C. and the Detection Buffer was stored at 4° C. For use as a 1× Antibody Solution, the 20× Antibody Solution aliquot was diluted with Detection Buffer in a 1:19 volume ratio.
Cells were lysed at room temperature for 45 min with shaking. A BCA protein assay was performed and normalization was conducted to the desired total protein concentration with 1× lysis buffer. Next, 1× Antibody Solutions were prepared by adding 380 μL Detection Buffer to 20 μL 20× Antibody Solution aliquots and mixing well. 1× Antibody Solutions were combined 1:1 and briefly vortexed. For control wells, 20 μL 1× anti IRAK4-k Antibody Solution was saved. The 384-well plate (ProxiPlate-384 Plus, Perkin Elmer Cat. #6008289) was loaded by adding 4 μL of the mixed Antibody Solution to empty wells using a single channel repeater. Using a multi-channel repeater, 16 μL lysate was added per well, and any bubbles that were formed were popped with 20 μL pipette tips and Kimwipe edges. In column 10, triplicates of each control were prepared. In wells A10, B10, and C10, buffer control was prepared by adding 16 μL Lysis Buffer and 4 μL Detection Buffer. In wells D10, E10, and F10, cryptate control was prepared by adding 16 μL Lysis Buffer, 2 μL Detection Buffer, and 2 μL 1× anti-IRAK4-k Antibody Solution. In wells G10, H10, and 110, a negative control was prepared by adding 16 μL Lysis Buffer and 4 μL mixed Antibody Solution. The plate was sealed with a clear seal and covered with an aluminum lid. The plate was spun down at 800 g for 5 min and incubated in the dark at room temperature overnight. The next day, the plate was spun down at 800 g for 5 min. The samples were analyzed by a plate reader (Envision, PerkinElmer) using the Desnor 384 HTRF program.

Test [2] addresses T1, IRAK4. Nature of the test: IRAK4 PhosphoSens Biochemical Assay (BIOCHEM). Conditions: IRAK4 1 nM; ATP and Sox conjugated peptide substrate AQT0326; pH 7.5; room temperature; 240 minutes. How it is done: The PhosphoSens® biochemical assay was performed as described by the vendor (AssayQuant Technologies Inc. Marlborough, MA). A 1.25× stock solution of IRAK4 (PV4002, ThermoFisher Scientific, Waltham, MA) and a 5× stock solution of ATP and Sox conjugated peptide substrate, AQT0326 (CSKS-AQT0326B, AssayQuant Technologies), were prepared in 1× kinase reaction buffer consisting of 50 mM HEPES, pH 7.5, 0.01% Brij-35, 0.5 mM EGTA, 20 mM MgCl2 and 1 mM DTT. 10 μL of the ATP and substrate solution mix, for a final concentration of 200 µM ATP and […] peptide substrate, was added to a Corning 3574 384-well, white, non-binding surface microtiter plate containing 0.5 μL of serially diluted test compounds prepared in DMSO. The reactions were started with the addition of 40 μL of the enzyme solution, for a final IRAK4 concentration of 1 nM, and monitored every 71 seconds for 240 minutes at λEX 360/λEM 485 in a BioTek Synergy H4 plate reader (Agilent Technologies, Santa Clara, CA) at room temperature. The initial linear portions of the progress curves were fit according to a linear equation to yield the slopes and converted to % inhibition based on a value of 100% activity for the no inhibitor treated control. IC50 values of each compound were obtained by fitting the % inhibition-compound concentration curves using Dotmatics software (Dotmatics, Bishops Stortford, Hertfordshire, England),

Where a name gives a salt, the structure may show the parent alone.

For orientation: EC50 means the midpoint of the concentration-response curve. A higher EC50 goes with weaker potency. One may read the IC50 as the concentration at which inhibition is half-maximal. For `N#Cc1nn([C@H]2CC[C@H](C(=O)N3CCN(c4ccc5c(c4)C(=O)N(C4CCC(=O)NC4=O)C5=O)CC3)CC2)cc1NC(=O)c1cnn2ccc(N3CCC[C@@H](N)C3)nc12` (stereo partly drawn) [Compound P-5], on IRAK4 [1], the EC50 was over 10000 nM and the “ALE THP1 HTRF YMIN” value is 60%. Moreover, the concentration for half-maximal inhibition (IC50) on IRAK4 [2] turned out to be 0.5 nM.

As for `CN(C[C@H]1CC[C@H](n2cc(NC(=O)c3cnn4ccc(N5C[C@H](N)C[C@@H](F)C5)nc34)c(C(F)F)n2)CC1)[C@H]1CC[C@H](Nc2cccc3c2C(=O)N(C2CCC(=O)NC2=O)C3=O)CC1` (stereo partly drawn) [Compound P-37], at IRAK4 [1], the EC50 stood at 20 nM and the “ALE THP1 HTRF YMIN” value is 12%. For the same molecule, the IC50 on IRAK4 [2] is under 0.5 nM.

Regarding `N#Cc1nn([C@H]2CC[C@H](C(=O)N3CCN(c4ccc5c(c4)CN(C4CCC(=O)NC4=O)C5=O)CC3)CC2)cc1NC(=O)c1cnn2ccc(N3CCNCC3)nc12` (stereo partly drawn) [Compound P-4], at IRAK4 [1], the EC50 was over 10000 nM and the “ALE THP1 HTRF YMIN” value was found to be 94%. On IRAK4 [2], the half-inhibitory concentration (IC50) is 3.2 nM.

Regarding `N[C@@H]1C[C@@H](F)CN(c2ccn3ncc(C(=O)Nc4cn([C@H]5CC[C@H](C(=O)N6CCN(c7ccc8c(c7)C(=O)N(C7CCC(=O)NC7=O)C8)CC6)CC5)nc4C(F)F)c3n2)C1` (stereo partly drawn) [Compound P-21], at IRAK4 [1], the EC50 turned out to be 5 nM and the “ALE THP1 HTRF YMIN” value is reported as 18%. Further, at IRAK4 [2], the IC50 is under 0.5 nM.

With `N[C@@H]1C[C@@H](F)CN(c2ccn3ncc(C(=O)Nc4cn([C@H]5CC[C@H](C(=O)NC6CCN(c7ccc8c(c7)CN(C7CCC(=O)NC7=O)C8=O)CC6)CC5)nc4C(F)F)c3n2)C1` (stereo partly drawn) [Compound P-24], on IRAK4 [1], the midpoint of the response, the EC50, lay at 4 nM and the “ALE THP1 HTRF YMIN” value is 11%. Also, the IC50 on IRAK4 [2] was under 0.5 nM.

For the molecule `N[C@@H]1C[C@@H](F)CN(c2ccn3ncc(C(=O)Nc4cn([C@H]5CC[C@H](C(=O)NC6CCN(c7ccc8c(c7)C(=O)N(C7CCC(=O)NC7=O)C8=O)CC6)CC5)nc4C(F)F)c3n2)C1` (stereo partly drawn) [Compound P-19], at IRAK4 [1], the EC50 was 7 nM and the “ALE THP1 HTRF YMIN” value is listed as 14%. At IRAK4 [2], the IC50 was under 0.5 nM.

On to `N#Cc1nn(C2CCC(C(=O)N3CCN(c4ccc5c(c4)C(=O)N(C4CCC(=O)NC4=O)C5=O)CC3)CC2)cc1NC(=O)c1cnn2ccc(N3C[C@H](N)C[C@@H](F)C3)nc12` (stereo partly drawn) [Compound P-8], for which, at IRAK4 [1], the EC50 turned out to be 8.9 nM and the “ALE THP1 HTRF YMIN” value came out at 33%. Further, at IRAK4 [2], the IC50 is under 0.5 nM.

Consider `N#Cc1nn(C2CCC(C(=O)N3CCN(c4ccc5c(c4)C(=O)N(C4CCC(=O)NC4=O)C5)CC3)CC2)cc1NC(=O)c1cnn2ccc(N3C[C@H](N)C[C@@H](F)C3)nc12` (stereo partly drawn) [Compound P-18], for which, on IRAK4 [1], the EC50 is over 10000 nM and the “ALE THP1 HTRF YMIN” value was 69%. Also, at IRAK4 [2], the IC50 is under 0.5 nM.

For the molecule `CN(c1ccc2c(c1)CN(C1CCC(=O)NC1=O)C2=O)C1CCN(C[C@H]2CC[C@H](n3cc(NC(=O)c4cnn5ccc(N6C[C@H](N)C[C@@H](F)C6)nc45)c(C(F)F)n3)CC2)CC1` (stereo partly drawn) [Compound P-34], at IRAK4 [1], the EC50 was found to be 6 nM and the “ALE THP1 HTRF YMIN” value stood at 9%. Also, the IC50 at IRAK4 [2] is under 0.5 nM.

For the molecule `N#Cc1nn([C@H]2CC[C@H](CN3CCC(c4ccc5c(c4)C(=O)N(C4CCC(=O)NC4=O)C5)CC3)CC2)cc1NC(=O)c1cnn2ccc(N3CCNCC3)nc12` (stereo partly drawn) [Compound P-9], on IRAK4 [1], the EC50 was over 10000 nM and the “ALE THP1 HTRF YMIN” value came out at 78%. Also, the IC50 on IRAK4 [2] was 1.4 nM.

In the case of `N#Cc1nn(C2CCC(C(=O)N3CCC(c4ccc5c(c4)C(=O)N(C4CCC(=O)NC4=O)C5)CC3)CC2)cc1NC(=O)c1cnn2ccc(N3CCNCC3)nc12` (stereo not drawn) [Compound P-10], on IRAK4 [1], the EC50 is over 10000 nM and the “ALE THP1 HTRF YMIN” value amounted to 73%. For the same molecule, the IC50 on IRAK4 [2] turned out to be 1.2 nM.

For the molecule `N[C@@H]1C[C@@H](F)CN(c2ccn3ncc(C(=O)Nc4cn(C5CCN(CCN6CCN(c7ccc8c(c7)CN(C7CCC(=O)NC7=O)C8=O)CC6)CC5)nc4C(F)F)c3n2)C1` (stereo partly drawn) [Compound P-38, N-[3-(difluoromethyl)-1-[1-[2-[4-[2-(2,6-dioxo-3-piperidyl)-1-oxo-isoindolin-5-yl]piperazin-1-yl]ethyl]-4-piperidyl]pyrazol-4-yl]-5-[(3R,5R)-3-amino-5-fluoro-1-piperidyl]pyrazolo[1,5-a]pyrimidine-3-carboxamide], on IRAK4 [1], the EC50 was found to be 6 nM and the “ALE THP1 HTRF YMIN” value is 10%. Moreover, the IC50 at IRAK4 [2] was under 0.5 nM.

For the molecule `N[C@@H]1C[C@@H](F)CN(c2ccn3ncc(C(=O)Nc4cn([C@H]5CC[C@H](NC(=O)C6CCN(c7ccc8c(c7)C(=O)N(C7CCC(=O)NC7=O)C8=O)CC6)CC5)nc4C(F)F)c3n2)C1` (stereo partly drawn) [Compound P-29, 5-[(3R,5R)-3-Amino-5-fluoro-1-piperidyl]-N-[3-(difluoromethyl)-1-[4-[[1-[2-(2,6-dioxo-3-piperidyl)-1,3-dioxo-isoindolin-5-yl]piperidine-4-carbonyl]amino]cyclohexyl]pyrazol-4-yl]pyrazolo[1,5-a]pyrimidine-3-carboxamide hydrochloride], at IRAK4 [1], the EC50 turned out to be 4 nM and the “ALE THP1 HTRF YMIN” value is given as 10%. The IC50 on IRAK4 [2] is under 0.5 nM.

For `N[C@@H]1C[C@@H](F)CN(c2ccn3ncc(C(=O)Nc4cn([C@H]5CC[C@H](C(=O)NC6CCN(c7ccc8c(c7)C(=O)N(C7CCC(=O)NC7=O)C8)CC6)CC5)nc4C(F)F)c3n2)C1` (stereo partly drawn) [Compound P-25], on IRAK4 [1], a half-maximal response (EC50) required 7 nM and the “ALE THP1 HTRF YMIN” value was determined as 11%. For the same molecule, the IC50 at IRAK4 [2] is under 0.5 nM.

As for `N[C@@H]1C[C@@H](F)CN(c2ccn3ncc(C(=O)Nc4cn([C@H]5CC[C@H](C(=O)N6CCN(c7ccc8c(c7)C(=O)N(C7CCC(=O)NC7=O)C8=O)CC6)CC5)nc4C(F)F)c3n2)C1` (stereo partly drawn) [Compound P-15], at IRAK4 [1], the EC50 was 8 nM and the “ALE THP1 HTRF YMIN” value was 18%. For the same molecule, the IC50 at IRAK4 [2] was under 0.5 nM.

For the molecule `N[C@@H]1C[C@@H](F)CN(c2ccn3ncc(C(=O)Nc4cn([C@H]5CC[C@H](C(=O)N6CCN(c7ccc8c(c7)C(=O)N(C7CCC(=O)NC7=O)C8)CC6)CC5)nc4C(F)(F)F)c3n2)C1` (stereo partly drawn) [Compound P-22], on IRAK4 [1], a half-maximal response (EC50) required 3 nM and the “ALE THP1 HTRF YMIN” value turned out to be 27%. The IC50 on IRAK4 [2] was under 0.5 nM.

Consider `N#Cc1nn(C2CCC(C(=O)NC3CCN(c4ccc5c(c4)C(=O)N(C4CCC(=O)NC4=O)C5=O)CC3)CC2)cc1NC(=O)c1cnn2ccc(N3CCNCC3)nc12` (stereo not drawn) [Compound P-3], for which, at IRAK4 [1], the EC50 was over 10000 nM and the “ALE THP1 HTRF YMIN” value is 54%. In addition, at IRAK4 [2], the IC50 stood at 4.3 nM.
